{
  "source": "patent US12152057B2",
  "about": "“Fusion proteins for inhibiting angiogenesis” (priority 2015, dated 2024)",
  "key": {"human VEGF165": {"target": "T1, human VEGF165 (Homo sapiens, UniProt P15692)", "T1 sequence (P15692 27-191 isoform P15692-4)": "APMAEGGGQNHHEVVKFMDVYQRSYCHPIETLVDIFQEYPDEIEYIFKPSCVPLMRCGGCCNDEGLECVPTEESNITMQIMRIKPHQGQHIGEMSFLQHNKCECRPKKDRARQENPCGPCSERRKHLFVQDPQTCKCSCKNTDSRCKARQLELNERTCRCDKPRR", "experiment": "Direct binding ELISA to human VEGF165", "details": "coated VEGF165 1 μg/mL, read-out: EC50 (nM), binding affinity to VEGF165", "description": "A direct binding enzyme-linked immunosorbent assay (ELISA) was used to measure the binding affinity of fusion proteins of the invention to human VEGF165, a splice variant of VEGF-A.\n100 μL of a coating solution (1 μg/mL VEGF165 in 1× phosphate buffered saline (PBS), pH 7.2) were added to each well of a 96-well ELISA plate, and the plate was incubated overnight at 4° C. The wells were washed twice with 400 μL of 1×PBS buffer, and excess liquid was carefully removed with a paper towel.\n400 μL of a blocking solution (5 g non-fat skim milk in 100 mL 1×PBS) were added to each well, and the plate was incubated at room temperature for 1 hour. The wells were washed twice with 1×PBS buffer.\nFusion protein and control samples were serially diluted three-fold in blocking solution, with a highest protein concentration of 10 nM. 100 μL of the serially diluted samples were added to each well. The plate was covered and incubated on a plate shaker (˜100 rpm) for 1 hour at room temperature. The wells were washed three times with wash buffer (1×PBS, 0.05% Tween-20). […]\n(§1) The optical density (OD) of each well was determined using an ELISA plate reader at an absorbance wavelength of 450 nm. The absorbance was plotted against the protein concentration of the fusion protein or the control, and the concentration at which the signal was half the maximal effective concentration (EC50) was determined."}, "[1]": {"test_system": "VEGF-induced leakage in Dutch Belted Rabbits", "experiment": "VEGF-induced retinal leakage in Dutch Belted rabbits (Example 8)", "type": "in vivo", "details": "FA scale 0 (normal) to 4 (severe)", "description": "Fusion proteins of the invention were tested in an in vivo model of vascular permeability to determine their efficacy in preventing vascular leakage. In this model, VEGF was intravitreally injected to the vitreous of rabbit eyes to induce uncontrolled retinal leakage. Aflibercept (Eylea®, Regeneron), a recombinant fusion protein consisting of portions of human VEGFR1 and VEGFR2 fused to the Fc portion of human IgG1, and bevacizumab (Avastin®, Roche), a recombinant humanized monoclonal antibody that blocks angiogenesis by inhibiting VEGF-A were included as Positive Controls 2 and 6, respectively.\nDutch Belted rabbits were anesthetized using isoflurane (3-5%), and their eyes were treated with ophthalmic Betadine solution. The rabbits' eyes were then washed with sterile saline, and lidocaine hydrochloride (2% injectable) or proparacaine (0.5%) was applied to the ocular surface.\nOn Day 1, Dutch Belted rabbits were intravitreally injected with fusion proteins of the invention, vehicle (negative) control, or reference (positive) controls at predetermined doses using a BD 300 μL insulin syringe (31 ga× 5/16 inch). […]\nSigns of ocular irritation were scored using the Draize scoring system prior to fusion protein dosing, VEGF induction, and assessments. […]"}, "[2]": {"test_system": "VEGF-induced leakage in Dutch Belted Rabbits", "experiment": "Dose-response VEGF-induced retinal leakage in Dutch Belted rabbits (Example 9)", "type": "in vivo", "details": "FA scale 0 (normal) to 4 (severe)", "description": "Fusion proteins of the invention were tested in an in vivo model of retinal vascular permeability at varying doses to determine their dose-response effectiveness in preventing vascular leakage. In this model, human VEGF165 was intravitreally injected to the vitreous of rabbit eyes to induce retinal leakage.\nOn Day 1, Dutch Belted rabbits were intravitreally injected with Fusion Protein 1 according to an embodiment of the invention at various doses, vehicle (negative) control, or reference (positive) controls. Vascular leakage was induced by injecting exogenous VEGF165 into the same eyes on Day 3.\nFAs were conducted on all dosage groups 3 days after the VEGF-induction (Day 6) to assess leakiness and tortuosity using a scale from 0 (normal) to 4 (severe).\nSigns of ocular irritation were scored using the Draize scoring system prior to fusion protein dosing, VEGF induction, and assessments. According to the Draize analysis, all of the rabbit eyes were normal prior to the initiation of dosing. […] There were no drug-related findings evident during the course of the study."}, "[3]": {"test_system": "human umbilical vein endothelial cell (HUVEC)", "experiment": "VEGF165-induced HUVEC proliferation assay (MTS)", "type": "cell-based", "details": "VEGF165 8 ng/mL, 72 hours, read-out: IC50 (nM), inhibition of cell proliferation", "description": "A human umbilical vein endothelial cell (HUVEC) proliferation assay was carried out to test the functionality of the fusion proteins of the invention. A commercially available VEGF Trap, aflibercept (Eylea®, Regeneron), was included as Positive Control 2.\n100 μL of a coating solution (1% gelatin in double distilled water) were added to each well of a 96-well ELISA plate, and the plate was incubated for 2 hours or overnight at 37° C. The wells were washed twice with 1×PBS buffer.\n3500 counts of human umbilical vein endothelial cells in endothelial cell growth medium were added to each well, and the plate was incubated overnight at 37° C.\nFusion protein samples were diluted in assay buffer (Medium-199 1× Earle's Salts, 10% fetal bovine serum, 10 mM HEPES, lx antibiotic/antimycotic), with a highest protein concentration of 300 nM. The fusion protein samples were mixed with VEGF165 (8 ng/mL), and the mixtures were incubated overnight at room temperature. The wells were then washed with 200 μL of 1×PBS.\n100 μL of the VEGF165/sample mixture were added to each well, and the plates were incubated for 72 hours at 37° C. with 5% CO2. […]\nThe OD of each well was determined using an ELISA plate reader at an absorbance wavelength of 490 nm. […]"}, "[4]": {"target": "T2, integrin α5β1 (K562 cells) (Homo sapiens, UniProt P05556+P08648)", "T2 construct": "α5β1-expressing K562 cells to fibronectin; host or cells: K562 human erythroleukemia cells", "T2 sequence (P08648 42-894 limits assumed)": "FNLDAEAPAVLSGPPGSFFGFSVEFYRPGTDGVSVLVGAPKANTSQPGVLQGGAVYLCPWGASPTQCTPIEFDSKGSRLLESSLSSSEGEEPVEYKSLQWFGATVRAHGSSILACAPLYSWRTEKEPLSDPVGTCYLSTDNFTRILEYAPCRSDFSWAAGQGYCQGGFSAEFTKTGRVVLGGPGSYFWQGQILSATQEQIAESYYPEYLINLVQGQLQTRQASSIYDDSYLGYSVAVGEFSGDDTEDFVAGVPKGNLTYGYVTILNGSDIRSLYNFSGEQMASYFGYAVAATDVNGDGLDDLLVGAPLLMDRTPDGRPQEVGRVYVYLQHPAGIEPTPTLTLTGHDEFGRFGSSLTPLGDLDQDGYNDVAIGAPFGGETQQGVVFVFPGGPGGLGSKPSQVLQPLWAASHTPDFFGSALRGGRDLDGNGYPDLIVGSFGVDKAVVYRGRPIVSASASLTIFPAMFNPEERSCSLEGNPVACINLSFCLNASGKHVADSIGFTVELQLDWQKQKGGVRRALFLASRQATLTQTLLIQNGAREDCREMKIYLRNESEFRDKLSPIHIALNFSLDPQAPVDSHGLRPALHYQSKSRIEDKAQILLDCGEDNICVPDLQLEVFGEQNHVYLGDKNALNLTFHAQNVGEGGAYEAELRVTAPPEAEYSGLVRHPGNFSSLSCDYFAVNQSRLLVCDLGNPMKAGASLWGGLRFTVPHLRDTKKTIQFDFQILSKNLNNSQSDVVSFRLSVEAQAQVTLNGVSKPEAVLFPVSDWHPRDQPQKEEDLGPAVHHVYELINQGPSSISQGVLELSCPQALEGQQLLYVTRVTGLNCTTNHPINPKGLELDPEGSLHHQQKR", "T2 sequence (P08648 895-1049 limits assumed)": "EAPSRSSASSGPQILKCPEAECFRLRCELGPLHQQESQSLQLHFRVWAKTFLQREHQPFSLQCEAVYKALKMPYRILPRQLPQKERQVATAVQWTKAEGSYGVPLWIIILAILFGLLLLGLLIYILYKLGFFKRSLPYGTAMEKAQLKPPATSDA", "T2 sequence (P05556 21-798)": "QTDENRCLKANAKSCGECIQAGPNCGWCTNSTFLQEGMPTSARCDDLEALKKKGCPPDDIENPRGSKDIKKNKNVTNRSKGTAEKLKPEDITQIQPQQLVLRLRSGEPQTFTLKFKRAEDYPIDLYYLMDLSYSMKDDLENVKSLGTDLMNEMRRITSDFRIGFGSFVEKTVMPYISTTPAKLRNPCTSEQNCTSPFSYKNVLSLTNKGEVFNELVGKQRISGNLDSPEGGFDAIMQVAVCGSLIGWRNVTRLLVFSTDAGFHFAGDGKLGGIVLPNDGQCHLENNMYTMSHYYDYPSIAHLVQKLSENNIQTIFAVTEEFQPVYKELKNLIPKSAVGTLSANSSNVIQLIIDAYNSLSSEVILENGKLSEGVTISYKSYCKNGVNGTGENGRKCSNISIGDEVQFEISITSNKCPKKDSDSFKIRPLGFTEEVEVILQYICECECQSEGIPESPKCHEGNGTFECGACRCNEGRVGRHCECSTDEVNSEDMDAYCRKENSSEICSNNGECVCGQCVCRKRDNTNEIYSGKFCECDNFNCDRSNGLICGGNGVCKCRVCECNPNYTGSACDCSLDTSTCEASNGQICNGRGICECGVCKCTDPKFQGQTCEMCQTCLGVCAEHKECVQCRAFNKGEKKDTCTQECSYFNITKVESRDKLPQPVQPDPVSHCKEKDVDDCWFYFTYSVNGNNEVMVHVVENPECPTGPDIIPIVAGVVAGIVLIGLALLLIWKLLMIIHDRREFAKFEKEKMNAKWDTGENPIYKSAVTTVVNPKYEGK", "experiment": "Adhesion of α5β1-expressing K562 cells to fibronectin", "type": "cell-based", "details": "K562 cell adhesion to fibronectin", "description": "(§2) The adhesion of αvβ3-overexpressing CHO cells to fibrinogen and α5β1-expressing K562 cells to fibronectin were evaluated in the presence of fusion proteins.\n(§3) 96-well Immulon-2 microtiter plates (Costar, Corning, NY) were coated with 100 μL of phosphate-buffered saline (PBS: 10 mM phosphate buffer, 0.15 M NaCl, pH 7.4) containing substrates at a concentration of 50-500 nM, and incubated overnight at 4° C. The substrates and their coating concentrations were fibrinogen (Fg) at 200 μg/mL and fibronectin (Fn) at 25 μg/mL. Non-specific protein binding sites were blocked by incubating each well with 200 μL of heat-denatured 1% bovine serum albumin (BSA) (Calbiochem) at room temperature for 1.5 hours. The heat-denatured BSA was discarded and each well was washed twice with 200 μL of PBS.\n(§4) CHO cells that expressed the integrin αvβ3 (CHO-αvβ3) from the same source of Patent Application No. PCT/US2015/46322 were maintained in DMEM. Human erythroleukemia K562 was maintained as written in Patent Application No. PCT/US2015/46322 from ATCC and cultured in Roswell Park Memorial Institute (RPMI)-1640 medium containing 5% FCS. […] Bound cells were quantified by crystal violet staining. […] The resulting absorbance was read at 600 nm and the readings were correlated with the number of adhering cells. […]"}, "[5]": {"test_system": "integrin αvβ3 (CHO-αvβ3 cells)", "experiment": "Adhesion of αvβ3-overexpressing CHO cells to fibrinogen", "type": "cell-based", "details": "CHO-αvβ3 cell adhesion to fibrinogen", "description": "as §2, §3, §4"}, "integrin αvβ3": {"target": "integrin αvβ3 (Homo sapiens, UniProt P05106+P06756)", "sequence (P06756 31-889 limits assumed)": "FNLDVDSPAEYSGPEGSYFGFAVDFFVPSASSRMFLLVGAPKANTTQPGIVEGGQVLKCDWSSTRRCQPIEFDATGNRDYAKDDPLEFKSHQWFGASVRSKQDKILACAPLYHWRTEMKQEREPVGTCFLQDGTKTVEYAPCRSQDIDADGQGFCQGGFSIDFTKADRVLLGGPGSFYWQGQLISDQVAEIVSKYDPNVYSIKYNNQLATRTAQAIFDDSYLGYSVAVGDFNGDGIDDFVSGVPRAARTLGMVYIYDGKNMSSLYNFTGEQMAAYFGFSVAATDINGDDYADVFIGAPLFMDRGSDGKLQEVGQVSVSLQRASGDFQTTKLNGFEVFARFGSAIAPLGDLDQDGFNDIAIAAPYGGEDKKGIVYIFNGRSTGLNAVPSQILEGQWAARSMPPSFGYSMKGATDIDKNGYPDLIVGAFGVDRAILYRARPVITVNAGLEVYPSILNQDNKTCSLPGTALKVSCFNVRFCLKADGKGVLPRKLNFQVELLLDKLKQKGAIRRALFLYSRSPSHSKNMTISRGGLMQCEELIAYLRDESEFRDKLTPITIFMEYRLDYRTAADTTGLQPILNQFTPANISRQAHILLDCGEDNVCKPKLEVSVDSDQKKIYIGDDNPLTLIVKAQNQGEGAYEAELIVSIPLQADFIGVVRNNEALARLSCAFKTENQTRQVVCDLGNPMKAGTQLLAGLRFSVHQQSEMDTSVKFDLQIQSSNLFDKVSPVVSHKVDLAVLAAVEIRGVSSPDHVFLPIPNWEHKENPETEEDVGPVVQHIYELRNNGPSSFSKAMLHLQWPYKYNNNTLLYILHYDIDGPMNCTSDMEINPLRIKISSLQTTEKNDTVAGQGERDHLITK", "sequence (P06756 891-992 limits assumed)": "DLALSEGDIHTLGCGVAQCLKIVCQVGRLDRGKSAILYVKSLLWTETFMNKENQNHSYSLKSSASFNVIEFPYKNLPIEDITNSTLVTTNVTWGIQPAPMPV", "sequence (P05106 27-718 limits assumed)": "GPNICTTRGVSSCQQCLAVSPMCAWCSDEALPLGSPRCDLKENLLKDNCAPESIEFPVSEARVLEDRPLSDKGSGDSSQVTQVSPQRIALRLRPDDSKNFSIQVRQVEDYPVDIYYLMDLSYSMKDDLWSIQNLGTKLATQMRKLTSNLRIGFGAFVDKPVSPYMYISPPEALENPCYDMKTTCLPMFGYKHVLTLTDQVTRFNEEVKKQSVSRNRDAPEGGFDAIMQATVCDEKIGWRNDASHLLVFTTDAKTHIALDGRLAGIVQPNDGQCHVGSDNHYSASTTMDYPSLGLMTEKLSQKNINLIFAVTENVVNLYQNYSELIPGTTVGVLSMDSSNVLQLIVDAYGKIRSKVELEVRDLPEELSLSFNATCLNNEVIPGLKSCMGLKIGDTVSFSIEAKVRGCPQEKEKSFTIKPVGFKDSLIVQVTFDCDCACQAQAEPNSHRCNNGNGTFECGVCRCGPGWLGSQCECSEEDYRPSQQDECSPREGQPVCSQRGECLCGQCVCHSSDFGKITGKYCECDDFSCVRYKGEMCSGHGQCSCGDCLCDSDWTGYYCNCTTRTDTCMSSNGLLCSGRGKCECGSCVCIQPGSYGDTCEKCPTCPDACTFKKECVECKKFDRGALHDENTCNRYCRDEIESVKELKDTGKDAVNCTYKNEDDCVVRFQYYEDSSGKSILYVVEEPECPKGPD", "experiment": "Competitive binding ELISA of soluble integrin αvβ3 to vitronectin", "details": "vitronectin-coated plate", "description": "The competitive binding was used to measure the binding affinity of Fusion Protein 1 of the invention to integrin αvβ3.\n1 μg/mL victronectin dissolved in coating solution were added to each well of a 96-well ELISA plate, and the plate was incubated overnight at 4° C. The wells were washed twice with PBS buffer, and excess liquid was carefully removed with a paper towel.\nBlocking solution (5 g non-fat skim milk in 100 mL 1×PBS) were added to each well, and the plate was incubated at room temperature for 1 hour. The wells were washed twice with 1×PBS buffer.\nOne hundred microliters […] of the serially diluted samples were added to each well. The plate was covered and incubated on a plate shaker (˜100 rpm) for 1 hour at room temperature. The wells were washed three times with wash buffer (1×PBS, 0.05% Tween-20).\nDiluted primary anti-integrin αv antibody was added and incubated, then washed. Horseradish peroxidase-conjugated goat anti-human IgG Fc specific antibodies in blocking solution were added to each well. […]\nas §1, with “inhibition” for “effective”, “(IC50)” for “(EC50)”"}, "HUVECs": {"test_system": "HUVECs", "experiment": "HUVEC tube formation on matrigel", "type": "cell-based", "details": "Homo sapiens, 18-hour incubation, read-out: IC50 (μM), inhibition of tube formation", "description": "HUVECs (1.5×10^4 cells/well) were placed in a 96-well matrigel-coated plate. Six doses of Fusion Protein 1 (0.1 μM, 0.3 μM, 1 μM, 3 μM, 10 μM, and 30 μM) and vehicle were added to each well in growth media under an atmosphere of 5% CO2 at 37° C. After an 18-hour incubation period, morphology of the endothelial cell tubes, which resemble a capillary-like network, were evaluated by photomicroscopy. Disruption (anti-angiogenesis) of total tube length was measured from each photograph and determined relative to the vehicle control group. […] Suramin was used as an anti-angiogenic positive control (Positive Control 5) for all studies."}},
  "data": [
    {"molecule": "aflibercept [Positive Control 2]", "values": [
      {"measurement": "EC50", "setting": "human VEGF165", "result": "0.088 to 0.195", "unit": "nM"},
      {"measurement": "Day 6 Mean Leakage Score", "setting": "[1]; Example 8, intravitreal dose 625 μg", "result": 0},
      {"measurement": "Day 6 Mean Leakage Score", "setting": "[2]; Example 9, intravitreal dose 625 μg", "result": 0},
      {"measurement": "IC50", "setting": "[3]", "result": "0.026 to 0.136", "unit": "nM"}
    ]},
    {"molecule": "bevacizumab [Positive Control 6]", "values": [
      {"measurement": "Day 6 Mean Leakage Score", "setting": "[1]; Example 8, intravitreal dose 1250 μg", "result": 0.25},
      {"measurement": "Day 6 Mean Leakage Score", "setting": "[2]; Example 9, intravitreal dose 1250 μg", "result": 0.17}
    ]},
    {"molecule": "Rhodostomin [Positive Control 3]", "values": [
      {"measurement": "IC50", "setting": "[4]", "result": 252, "unit": "nM"},
      {"measurement": "IC50", "setting": "[5]", "result": 24.7, "unit": "nM"},
      {"measurement": "IC50", "setting": "integrin αvβ3", "result": "2.6 to 3.2", "unit": "nM"}
    ]},
    {"molecule": "Cc1ccc(C(=O)Nc2ccc(S(=O)(=O)O)c3cc(S(=O)(=O)O)cc(S(=O)(=O)O)c23)cc1NC(=O)c1cccc(NC(=O)Nc2cccc(C(=O)Nc3cc(C(=O)Nc4ccc(S(=O)(=O)O)c5cc(S(=O)(=O)O)cc(S(=O)(=O)O)c45)ccc3C)c2)c1", "note": "[Positive Control 5, Suramin]", "values": [
      {"measurement": "IC50", "setting": "HUVECs", "result": 15.8, "unit": "µM"}
    ]}
  ]
}
